The values that follow come from US8858995B2, “Methods and compositions for controlled delivery of phytochemical agents” (priority 2008, dated 2014).

A short description of series [1]: Tissue curcuminoid levels after coated implants (UPLC). It counts as in vivo, A/J mice. The note with it: female, A/J, mouse. As to the method: Briefly, liver and brain tissues (500 and 400 mg, respectively) from each animal were homogenized in 3 ml PBS (pH 7.4) containing 200 μl of 0.5 M sodium acetate, and extracted with ethyl acetate. After evaporation of the pooled extracts, the residue was reconstituted in 100 μl acetonitrile and analyzed by UPLC using Shimadzu UPLC system (Kyoto, Japan), with a Shim-Pack XR-ODS II reverse phase column (Shimadzu; 150×3.0 mm i.d., 2.2 μm).

The conditions of series [2]: extruded implants.
Series [3] deals with 17β-estradiol-induced mammary tumors. It counts as in vivo, ACI rats. The conditions noted are these: for animals that developed palpable tumors: control 100% after 26 wks. An excerpt:
Cancer chemoprevention approaches have been used to manipulate tumorigenesis and reduce the transformation of normal/pre-cancerous cells to malignancy. Many compounds that have worked in cell culture studies though have failed in animal models and clinical trials due to lack of bioavailability. Additionally, the high doses required to elicit biological response can be toxic. The following experiments were designed to test the hypothesis that the effective dose of phytochemical agents, administered systemically via implantation of a silastic implant incorporating the agents, can be reduced substantially compared with the traditional dietary route and were also designed to determine the effect of individual phytochemical agents on mammary carcinogenesis. The silastic implants used in the experiments described below were fabricated by filling silastic tubing with a desired agent. Although the silastic implants are not biodegradable like compositions disclosed herein comprising biocompatible polymeric matrices, the silastic implants provide proof of concept that a reduced dose of phytochemical agents administered systemically can be effective in inhibiting mammary carcinogenesis.
Initially, an experiment was performed by subcutaneously implanting individual phytochemical agents using a large number of animals per group (n=17-19). […] Two weeks later, all groups received 3 cm biocompatible silastic implants incorporating 27 mg of 17β-estradiol. Six months later, after all animals had developed mammary tumors, the animals were euthanized and the mammary tumors were counted and their size measured. […] However, 30-55% reductions were found in the tumor burden with all test agents (FIG. 23A) as measured by tumor volume, with ellagic acid resulting in the most significant reduction in tumor burden (55%). The foregoing results thus support the effectiveness of ellagic acid, a significant component in certain berries, as an exemplary phytochemical compound that can be administered via a biocompatible silastic implant to inhibit or reduce estrogen-induced ACI rat mammary carcinogenicity.
To further evaluate the effectiveness of ellagic acid in estrogen-induced mammary carcinogenicity and to determine whether the effective dose of ellagic acid administered systemically via a biocompatible silastic implant can be reduced substantially compared with the traditional dietary route, ellagic acid was administered either in the diet (400 ppm) or by subcutaneous implantation of a biocompatible silastic implant incorporating an effective amount of ellagic acid (27 mg/implant, 4 implants). […] All groups received diet and water ad libitum. The body weight and diet consumption were recorded weekly. The animals were palpated for mammary tumors, and were euthanized when the largest tumor reached >1 cm. The first tumor in the control group appeared after nearly 84 days. However, the first tumor appearance with ellagic acid implants or ellagic acid-supplemented diet was somewhat delayed by 2 and 3 weeks, respectively. The control group reached 100% tumor incidence after 26 wks, but only 75% or 69% of the animals developed palpable tumors in the groups that received ellagic acid by implants or diet, respectively. […] Similar reductions were also observed in the tumor multiplicity (4.00±0.63 and 4.80±0.4 tumors/rat with implant and diet, respectively versus 6.77±0.87 in the control group) (FIG. 24A).
The total amount of ellagic acid administered during the entire duration of the study by diet was 800 mg/rat while the subcutaneous implantation of the biocompatible silastic implant incorporating ellagic acid delivered only 1.48±0.87 mg per implant, as determined by HPLC measurement of the material left in implants recovered after termination.

A further series relates to breast cancer incidence. The note with it: pre-menopausal women with a family history of breast cancer, high consumption; cited from earlier work.
For the next series, the system named is DBP-DNA adducts. The series can be described thus: Dibenzo[a,I]pyrene (DBP)-DNA adducts in lung (32P-postlabeling). It counts as in vivo, A/J mice. The conditions noted are these: two 1.5 cm coated implants; DBP implant; 3 weeks. How it is done:
(§1) To assess the coated implants (i.e., where the compositions were in the form of coatings), in vivo studies were also performed. […] All groups of animals were also treated with dibenzo[a,I]pyrene (DBP) via polymeric implants (1-cm, 1.4 mm dia, 5% DBP load) at the same time. Implants were grafted subcutaneously, and animal were euthanized after 3 weeks. […] In both cases, animals were euthanized by CO2 asphyxiation and selected tissues (lung, liver and brain) were collected and stored at −80° C. until processing. Implants were also recovered, dried under vacuum and stored in amber vials under argon at 4° C. until analysis.
To analyze the formation of DNA adducts, DNA was isolated from lung tissue (200 mg) by treatment of the isolated crude nuclei with RNases and proteinase K, followed by extractions with phenol, phenol:Sevag and Sevag. DNA was recovered by ethanol precipitation and its concentration was measured spectrophotometrically considering 1 A260 equals 50 μg DNA. DNA adducts were analyzed by nuclease P1-mediated ^32P-postlabeling/TLC assay and expressed as adducts per 10^9 nucleotides.

For series [4], the system named is human lung cancer A549 cell xenografts. The experiment in a line: Human lung cancer xenograft inhibition by withaferin A. It counts as in vivo, athymic nude mice. As to the method: Additionally, to assess the effect of the implants on tumor xenografts, five- to six-week old female athymic nude mice (Harlan Laboratories, Indianapolis, Ind.) were acclimated for a week and then inoculated with human lung cancer (A549) cells (3×10^6 cells) in matrigel. […] Animals were weighed and the tumors were measured by a digital caliper weekly. At the end of 6 to 8 weeks, animals were euthanized by CO2 asphyxiation, tumors were collected and measured.

For series [5] the following is noted: mouse, sc. As to the method:
as §1
The supernatants were diluted with ethanol:DCM (80:20) and their concentrations were measured spectrophotometrically at maximal absorbance and the concentrations were calculated against standard curves of individual compounds.

A further series has as its system DNA adducts in the liver. The series can be described thus: Liver DNA adducts after a bolus dose of dibenzo[a,1]pyrene (32P-postlabeling). It counts as in vivo, Sprague-Dawley rats. The conditions noted are these: 2 cm PCL:cyclodextrin (9:1) matrix, 10% w/w; bolus dibenzo[a,1]pyrene; 5 days after carcinogen.
The nature of series [6]: In vitro release from coated (and extruded) polymeric implants. It counts as physicochemical. As to the method: To formulate the “coated” polymeric implants, blank P-80 implants (1.4 mm dia) were then prepared by dissolving P-80:F68 (9:1) in dichloromethane, followed by evaporation of the solvent in a Petri dish under hood and extrusion of the molten polymer through a silastic tubing mold, similar to the methodologies described herein above. […] For coating, one end of the blank implant (2.5-3.5 cm) was inserted into a silastic tube plug (6 mm long, 1.4 mm dia) while the other end of the plug was attached with a pipet tip. Coatings were then added by dipping the blank implant into the solution with intermittent drying with cool air using a commercial hair dryer and placing them under hood. […] The assembly was placed under hood overnight to remove the residual DCM, implants were excised in 1 or 2 cm lengths and stored in amber vials under argon at -20° C. until used. The rate of in vitro release for the implants was subsequently measured. […] The vials were placed in a water bath (Julabo S W 23, Seelback, Germany) at 37° C. with constant agitation at 110 rpm. The medium was changed every 24 h.

Where two headings read alike, the source gives them in different places.

Protocol for DNA adducts in the liver: Eleven days later, the animals were treated with a bolus dose of dibenzo[a,1]pyrene. The animals were then euthanized 5 days after the carcinogen treatment and liver samples were collected.

`COc1cc(/C=C/C(O)=C/C(=O)/C=C/c2ccc(O)cc2)ccc1O` [curcuminoid II, demethoxycurcumin] came in with a concentration at 21 days in series [1] (in vivo) of 1 ng/g.
`O=C(/C=C/c1ccc(O)cc1)CC(=O)/C=C/c1ccc(O)cc1` [curcuminoid III, bisdemethoxycurcumin]: the concentration at 21 days is 6.4 ng/g in series [1] (brain, subcutaneous, 2 1.5 cm implants (60 mg/implant, approximately 10% drug load), delivered individually by implant, 21 days, read-out: level in brain tissue) and 5 to 6 ng/g in [1] (liver, subcutaneous, 2 1.5 cm implants (60 mg/implant, approximately 10% drug load), delivered individually, two 1.5-cm implants, 21 days, read-out: level in the liver).
Consider `CC(=O)OC(C)(C)/C=C/C(=O)[C@](C)(O)[C@H]1[C@H](O)C[C@@]2(C)[C@@H]3CC=C4[C@H](C[C@H](O)C(=O)C4(C)C)[C@]3(C)C(=O)C[C@]12C` [cucurbitacin B], for which, in [2], the “burst release and local toxicity” value is “burst release phenomenon and sign of local toxicity”.
For the compound `O=c1oc2c(O)c(O)cc3c(=O)oc4c(O)c(O)cc1c4c23` [ellagic acid], the “reduction in tumor burden (tumor volume)” value in series [3] (3 cm silastic implant, 27 mg agent, six months) was determined as 55%. Besides, the tumor multiplicity in [3] (diet) is on record as 4.80±0.4 tumors/rat; in series [3] (implant) it was 4.00±0.63 tumors/rat. The “delay of first tumor appearance” value in [3] (diet 400 ppm) amounted to 3 weeks; in series [3] (silastic implants, 27 mg/implant, 4 implants) it was 2 weeks. For the same compound, the “animals that developed palpable tumors” value in series [3] (diet 400 ppm) is on record as 69%; in series [3] (implants), 75%. In addition, the tumor burden in series [3] (dietary 400 ppm) stood at 269±61 mm^3; in series [3] (implant (slow release)) it was 454±105 mm^3. Also, in [3] (rat, in vivo), the “amount delivered per implant over the study” value stood at 1.48±0.87 mg per implant.
Take vitamin E: the “reduction in breast cancer incidence” value in the series with breast cancer incidence was 43%.
With `CC1=C(CO)C(=O)O[C@@H]([C@@H](C)[C@H]2CC[C@H]3[C@@H]4C[C@H]5O[C@]56[C@@H](O)C=CC(=O)[C@]6(C)[C@H]4CC[C@]23C)C1` [withaferin A], the “lung DBP-DNA adduct levels” value in the series on DBP-DNA adducts is on record as “reduction in the DNA adduct levels”. The “burst release and local toxicity” value in series [2] was “burst release phenomenon and sign of local toxicity”. Also, the “total dose administered via the implants” value in series [4] (calculated from residual amount in the implants, versus 5.6 mg i.p.) is 2.69 mg. For the same compound, in [4] (coated implants, two 1.5-cm, 5% drug load), the “reduction in the growth of the tumor” value was 51%. Moreover, in series [4] (end of the 8-week study, implants), the “body weight versus sham” value is “essentially the same body weight”. The “reduction of the tumor” value in [4] (intraperitoneally 4 mg/kg) is “no reduction”. The “inhibition of the tumor” value in [4] (intraperitoneally 8 mg/kg on alternate days) stood at 53%.
For the compound `Cc1c(-c2cnccn2)ssc1=S` [oltipraz], the “total release in vivo at the end of 3 weeks” value in [5] was 18.6%. In the series on DNA adducts in the liver, the “DNA adducts in the liver” value was “reduced the amount of B[a]P-induced DNA adducts”. In addition, in the series with DBP-DNA adducts, the “lung DBP-DNA adduct levels” value is recorded as “reduction was statistically significant”. Also, the “release in PBS alone” value in series [6] (37° C., no serum) is “essentially no release”. For the same compound, the release kinetics result in series [6] (PBS with 10% bovine serum, 60 days) is “essentially zero-order kinetics”. Besides, the “cumulative release after 60 days” value in [6] (in vitro) is listed as ~27%. Moreover, the “cumulative release over 3 weeks (21 days)” value in series [6] (in vitro, PBS with 10% bovine serum) is “about 12%”.
